Experimental data taken from patent US12133838B2, “Homotaurine-enriched compositions and methods of use for animal health” (FB Maria srl, priority 2015, dated 2024).

Columns and labels:
elderly dogs = assay: cognitive learning test in a maze, elderly dogs; assay type: in vivo, dog; conditions: for Average number of wrong tries of the aged dogs able to pass the learning test (average score) / Percentage of the aged dogs able to pass the learning test: dogs more than 10 years
Text: (§1) The experiment began by selecting two groups of elderly dogs (age more than 10 years, 16 subjects per group) and two groups of young adult dogs (between 3 and 6 years of age, 6 subjects per group), who were divided randomly balancing them per age, seniority, and size. The dogs underwent a cognitive learning tests (Spatial reversal learning is impaired by aging in pet dogs, P. Mongillo et al., Age, 2013, 35 (6): 2273-2282), in a simple maze built to this trial. Passing the test consisted in the dog's ability to learn to get out of the labyrinth in the direction that he himself had chosen in the first successful attempt. The number of attempts has been the test score: the lower the number of attempts, better cognitive performance. Immediately after the test, two groups of dogs (one old and one young) started to receive food integration of homotaurine capsules. Homotaurine at was administered orally once daily (PO SID) at a dose of 1 g/subject. After 15 days the dogs underwent a memory test (learning result application of first test) and, if they have passed the test, to a subsequent reverse learning test, which consisted in learning to exit the labyrinth from the opposite direction to that previously learned within a defined number of trials. After 4 months of homotaurine supplementation, initial learning test was repeated, with the same modalities of the initial test. The first evaluable results regarding the comparison between the cognitive learning tests, carried out on two groups of dogs over 10 years of age, a period in which aging-correlated brain behavior changes can be observed.

young adult dogs = assay: cognitive learning test in a maze, young adult dogs; assay type: in vivo, dog; conditions: young dogs (under 6 years of age), homotaurine 1 g/subject PO SID
Text: as §1, with “After” for “After 15 days the dogs underwent a memory test (learning result application of first test) and, if they have passed the test, to a subsequent reverse learning test, which consisted in learning to exit the labyrinth from the opposite direction to that previously learned within a defined number of trials. After”, “test.” for “test. The first evaluable results regarding the comparison between the cognitive learning tests, carried out on two groups of dogs over 10 years of age, a period in which aging-correlated brain behavior changes can be observed.”

[1] = 1° test, before start of homotaurine
[2] = 2° test, after 4 months of homotaurine 1 g/subject PO SID

SMILES: NCCCS(=O)(=O)O [homotaurine, 3-amino-1-propanesulfonic acid]
- Average number of wrong tries of the aged dogs able to pass the learning test (average score) (elderly dogs; [1]): 6.67
- Percentage of the aged dogs able to pass the learning test (elderly dogs; [1]): 75%
- Average number of wrong tries of the aged dogs able to pass the learning test (average score) (elderly dogs; [2]): 5.67
- Percentage of the aged dogs able to pass the learning test (elderly dogs; [2]): 75%
- change of average score, second versus first test (elderly dogs; aged dogs, about four months of homotaurine 1 g/subject PO SID): −1.0
- failures in the learning test (elderly dogs; first test, before start of homotaurine, aged dogs): 25%
- failures in the learning test (elderly dogs; second test, about four months later, 1 g/subject PO SID, aged dogs): 25%
- change of average score (young adult dogs): −2.6
